Data published in paper PMC6078345, “Location and functions of Inebriated in the Drosophila eye” (Biology Open, 2018).

Target: T1, Ine-P1 (Inebriated long isoform; Ine-P1::GFP, Ine-P1-EGFP) (Drosophila melanogaster, UniProt Q9VR07)
T1 construct: full-length long isoform, GFP/EGFP fusion, cRNA in Xenopus laevis oocytes; 943 aa
T1 sequence (Q9VR07 1-943): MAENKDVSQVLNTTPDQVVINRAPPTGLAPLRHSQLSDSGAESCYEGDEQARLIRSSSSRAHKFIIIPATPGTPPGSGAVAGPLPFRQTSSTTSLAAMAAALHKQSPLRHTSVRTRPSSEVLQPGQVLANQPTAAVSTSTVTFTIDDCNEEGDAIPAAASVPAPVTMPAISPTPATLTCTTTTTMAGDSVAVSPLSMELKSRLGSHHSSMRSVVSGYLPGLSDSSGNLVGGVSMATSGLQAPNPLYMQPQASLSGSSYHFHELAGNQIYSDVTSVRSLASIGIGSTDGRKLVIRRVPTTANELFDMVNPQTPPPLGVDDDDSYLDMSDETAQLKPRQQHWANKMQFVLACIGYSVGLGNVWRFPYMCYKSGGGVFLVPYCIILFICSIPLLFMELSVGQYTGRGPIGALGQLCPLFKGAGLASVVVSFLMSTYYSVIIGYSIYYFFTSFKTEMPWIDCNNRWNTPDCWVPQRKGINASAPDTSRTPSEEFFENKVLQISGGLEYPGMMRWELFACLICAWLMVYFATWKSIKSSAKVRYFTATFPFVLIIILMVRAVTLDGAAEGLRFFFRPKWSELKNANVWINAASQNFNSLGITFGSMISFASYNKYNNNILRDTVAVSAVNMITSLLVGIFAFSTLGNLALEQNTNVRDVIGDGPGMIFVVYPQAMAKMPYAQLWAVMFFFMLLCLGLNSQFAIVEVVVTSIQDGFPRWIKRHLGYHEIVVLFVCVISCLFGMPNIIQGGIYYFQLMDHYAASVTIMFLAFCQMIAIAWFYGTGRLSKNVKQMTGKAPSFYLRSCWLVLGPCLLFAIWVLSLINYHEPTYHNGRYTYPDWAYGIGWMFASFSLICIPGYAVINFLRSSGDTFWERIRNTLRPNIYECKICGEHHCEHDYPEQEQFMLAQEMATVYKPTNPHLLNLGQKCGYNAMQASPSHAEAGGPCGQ
Test: voltage-clamp current in Xenopus oocytes
Assay type: cell-based
Conditions: normal frog Ringer, -100 mV; dose-dependent current, 7 to 100 mM; few oocytes; transport only suggested

## NCC(=O)O [glycine]
  voltage-clamp current in Xenopus oocytes: glycine on Ine-P1-EGFP transfected oocytes revealed an obvious dose-dependent signal
